Results from ChEMBL document CHEMBL3399935, “Structure-activity relationships of benzhydrol derivatives based on 1'-acetoxychavicol acetate (ACA) and their inhibitory activities on multiple myeloma cell growth via inactivation of the NF-κB pathway” (Bioorg Med Chem, 2015).
Calls of active or inactive are those of the source. The rule behind the calls is not given here.

Key:
[1] = Cytotoxicity against human HL60 cells assessed as growth inhibition after 3 days; format: functional, cell-based; conditions: HL-60, 72 h
[2] = Cytotoxicity against human IM9 cells assessed as growth inhibition after 3 days; format: functional, cell-based; conditions: IM-9, 72 h
[3] = target: T1, Nuclear factor NF-kappa-B complex (Homo sapiens) (UniProt Q00653+P19838+Q04206); test: Inhibition of NF-kappaB in human IM9 cells assessed as inhibition of nuclear translocation at 10 uM after 30 mins by NF-kappaB (p65) transcription factor assay; format: cell-based; conditions: IM-9
[4] = target: T1, Nuclear factor NF-kappa-B complex (Homo sapiens); test: Inhibition of NF-kappaB in human IM9 cells assessed as inhibition of nuclear translocation at 1 uM after 30 mins by NF-kappaB (p65) transcription factor assay; format: cell-based; conditions: IM-9
[5] = system: IM-9; test: Cytotoxicity against human IM9 cells assessed as growth inhibition at 10 uM after 3 days; format: functional, cell-based
[6] = system: HL-60; test: Cytotoxicity against human HL60 cells assessed as growth inhibition at 10 uM after 3 days; format: functional, cell-based

T1 sequence (P19838 whole entry, looked up): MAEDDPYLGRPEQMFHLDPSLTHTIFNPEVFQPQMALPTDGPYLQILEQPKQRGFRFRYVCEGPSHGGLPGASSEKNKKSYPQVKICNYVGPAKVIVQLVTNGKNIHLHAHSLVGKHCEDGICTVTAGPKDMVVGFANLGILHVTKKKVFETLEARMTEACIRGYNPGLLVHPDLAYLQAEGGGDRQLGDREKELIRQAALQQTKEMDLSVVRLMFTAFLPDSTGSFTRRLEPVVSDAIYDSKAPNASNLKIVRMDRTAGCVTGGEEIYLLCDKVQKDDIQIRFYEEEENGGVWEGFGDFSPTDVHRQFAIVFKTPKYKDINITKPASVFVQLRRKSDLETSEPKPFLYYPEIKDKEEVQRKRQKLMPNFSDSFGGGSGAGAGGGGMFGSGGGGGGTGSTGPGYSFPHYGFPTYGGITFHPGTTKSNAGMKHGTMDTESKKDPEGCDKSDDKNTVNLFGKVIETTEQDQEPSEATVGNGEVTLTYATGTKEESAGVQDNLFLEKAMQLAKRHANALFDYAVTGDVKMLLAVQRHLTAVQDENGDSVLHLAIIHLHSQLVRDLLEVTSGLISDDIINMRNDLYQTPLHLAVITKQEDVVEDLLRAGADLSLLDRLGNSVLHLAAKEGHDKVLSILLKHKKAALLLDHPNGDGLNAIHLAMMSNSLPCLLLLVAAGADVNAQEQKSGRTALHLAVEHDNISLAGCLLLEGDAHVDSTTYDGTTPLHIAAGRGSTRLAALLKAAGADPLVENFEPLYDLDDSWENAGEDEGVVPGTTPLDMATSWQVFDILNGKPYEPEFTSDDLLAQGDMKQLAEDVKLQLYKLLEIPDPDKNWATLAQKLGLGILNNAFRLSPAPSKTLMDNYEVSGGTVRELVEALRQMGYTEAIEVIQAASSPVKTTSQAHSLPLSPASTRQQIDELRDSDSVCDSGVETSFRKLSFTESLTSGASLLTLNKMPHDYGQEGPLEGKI
T1 sequence (Q00653 whole entry, looked up): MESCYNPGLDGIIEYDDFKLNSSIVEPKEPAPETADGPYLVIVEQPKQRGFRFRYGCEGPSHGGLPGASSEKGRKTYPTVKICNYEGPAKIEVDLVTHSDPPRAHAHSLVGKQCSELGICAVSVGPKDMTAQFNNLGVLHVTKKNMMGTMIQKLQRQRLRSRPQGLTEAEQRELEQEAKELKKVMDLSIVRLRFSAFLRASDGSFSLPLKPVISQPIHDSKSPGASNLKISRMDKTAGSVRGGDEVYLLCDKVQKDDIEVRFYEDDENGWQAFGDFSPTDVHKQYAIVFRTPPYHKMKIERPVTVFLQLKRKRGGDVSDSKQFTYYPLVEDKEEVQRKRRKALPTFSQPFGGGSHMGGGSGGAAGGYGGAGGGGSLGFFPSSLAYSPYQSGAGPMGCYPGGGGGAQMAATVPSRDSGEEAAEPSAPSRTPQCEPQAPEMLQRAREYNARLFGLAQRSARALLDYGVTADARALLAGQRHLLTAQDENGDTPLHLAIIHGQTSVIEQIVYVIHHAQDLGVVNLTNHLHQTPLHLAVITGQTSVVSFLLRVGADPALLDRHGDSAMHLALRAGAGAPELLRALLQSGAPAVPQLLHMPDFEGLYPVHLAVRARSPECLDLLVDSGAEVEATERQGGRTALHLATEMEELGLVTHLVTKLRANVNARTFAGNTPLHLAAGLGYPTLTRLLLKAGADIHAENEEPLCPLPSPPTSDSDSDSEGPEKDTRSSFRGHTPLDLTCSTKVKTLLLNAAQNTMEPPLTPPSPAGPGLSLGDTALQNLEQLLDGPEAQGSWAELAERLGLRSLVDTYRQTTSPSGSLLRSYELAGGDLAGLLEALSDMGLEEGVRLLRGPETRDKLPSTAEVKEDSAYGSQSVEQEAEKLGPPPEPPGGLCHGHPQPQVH
T1 sequence (Q04206 whole entry, looked up): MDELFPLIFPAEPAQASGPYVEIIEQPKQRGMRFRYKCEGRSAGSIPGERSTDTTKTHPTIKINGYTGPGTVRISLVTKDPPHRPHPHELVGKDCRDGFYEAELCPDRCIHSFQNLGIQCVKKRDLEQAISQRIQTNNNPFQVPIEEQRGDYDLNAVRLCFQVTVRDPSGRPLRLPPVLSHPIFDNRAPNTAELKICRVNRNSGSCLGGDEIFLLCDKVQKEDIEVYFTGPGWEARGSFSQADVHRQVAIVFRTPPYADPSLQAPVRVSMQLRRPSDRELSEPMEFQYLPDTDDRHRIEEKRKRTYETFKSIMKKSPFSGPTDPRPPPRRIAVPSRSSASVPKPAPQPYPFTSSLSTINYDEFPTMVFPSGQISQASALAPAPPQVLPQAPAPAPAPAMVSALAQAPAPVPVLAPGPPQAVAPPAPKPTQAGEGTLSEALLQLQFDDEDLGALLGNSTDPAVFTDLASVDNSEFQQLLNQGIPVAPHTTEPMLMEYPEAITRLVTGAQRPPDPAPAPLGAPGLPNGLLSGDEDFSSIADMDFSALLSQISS

inhibition [3] | SMILES | IC50 [1] | IC50 [2] | further results
– | CC(=O)Oc1ccc(C(OC(C)=O)c2cc(-c3ccccc3)cc(-c3ccccc3)c2)cc1 (stereo not given) | 1100 nM | – | –
– | CC(=O)Oc1ccc(C(OC(C)=O)c2cccc3ccccc23)cc1 (stereo not given) | 290 nM | – | –
– | CC(=O)Oc1ccc(C(OC(C)=O)c2ccc3ccccc3c2)cc1 (stereo not given) | 2200 nM | – | –
85% | CC(=O)Oc1ccc(C(OC(C)=O)c2c3ccccc3cc3ccccc23)cc1 (stereo not given) | 120 nM | 230 nM | inhibition [4]: 32%
inactive | CC(=O)Oc1ccc2c(c1)-c1ccccc1C2OC(C)=O (stereo not given) | > 10000 nM | – | inhibition [5]: inactive
– | CC(=O)Nc1ccc(C(OC(C)=O)c2ccccc2)cc1 (stereo not given) | – | – | inhibition [6]: inactive
61% | CC(=O)Oc1ccc(C(OC(C)=O)c2ccccc2)cc1 (stereo not given) | 3500 nM | 2500 nM | –
– | CC(=O)Oc1ccc2c(c1)CCc1ccccc1C2OC(C)=O (stereo not given) | 2800 nM | – | –
– | CC(=O)NC(c1ccccc1)c1ccc(OC(C)=O)cc1 (stereo not given) | – | – | inhibition [6]: inactive

SMILES | inhibition [3] | IC50 [1] | IC50 [2] | further results
C=C[C@H](OC(C)=O)c1ccc(OC(C)=O)cc1 [1'-ACETOXYCHAVICOL ACETATE] | 70% | 2000 nM | 2100 nM | inhibition [4]: 0%
